Data as given in publication PMC12431657, “Discovery and mechanistic insights of dibenzoylmethane as a broad spectrum inhibitor of coronavirus” (PLOS Pathogens, 2025).
Where “and” joins values, the source holds several entries; their conditions need not be identical. Identical values can stand only once.

Tests used:
Assay type in all cases: cell-based
[1] = test system: SARS-CoV-2 variant Delta (B.1.617.2); assay: microbe, parasite or virus in culture; conditions: for EC50: Severe acute respiratory syndrome coronavirus 2, 24 h, read-out: EC50 B.1.617.2 (293T-AT)
[2] = test system: SARS-CoV-2 variant Omicron (BA.5); assay: microbe, parasite or virus in culture; conditions: for EC50: Severe acute respiratory syndrome coronavirus 2, 24 h, read-out: EC50 BA.5 (293T-AT)
[3] = test system: SARS-CoV-2 variant Omicron (BA.5)

SMILES	B.1.617.2, HEK293T-AT: inhibition at the concentration (Fig2B) [1]	EC50 [1]	BA.5, HEK293T-AT: inhibition at the concentration (Fig2B) [2]	EC50 [2]	inhibitory effect against SARS-CoV-2 BA.5 in HEK293T-AT cells [2]	inhibitory effect against SARS-CoV-2 BA.5 in Vero E6 cells [3]
Cc1c([C@H](C)[C@@H]2NC[C@@H](C)C[C@H]2O)ccc2c1C[C@H]1[C@H]2CC=C2C[C@@H](O)CC[C@@]21C [Veratramine, veratramine]	99.1 and 99.7 and 99.9	< 0.08 µM	81.3	< 0.08 µM		
CCC(=O)O[C@H]1[C@H](O[C@@H]2[C@@H](C)[C@H](O[C@H]3C[C@@](C)(OC)[C@@H](O)[C@H](C)O3)[C@@H](C)C(=O)O[C@H](CC)[C@@](C)(O)[C@H](O)[C@@H](C)C(=O)[C@H](C)C[C@@]2(C)O)O[C@H](C)C[C@@H]1N(C)C [Erythromycin estolate, erythromycin estolate, reference compound]	98.9 and 99.6 and 99.2	< 0.08 µM		< 0.08 µM		
O=C(CC(=O)c1ccccc1)c1ccccc1 [DBM, dibenzoylmethane]		20.8 µM	97.4	6.63 µM	demonstrated efficacy	but not in Vero E6 cells
C/C=C(/C)C(=O)OC(C)(C)[C@@H]1Cc2c(ccc3ccc(=O)oc23)O1 [Columbianadin, columbianadin]	99.1 and 99.3	< 0.08 µM		< 0.08 µM		
CC1=C[C@]23C(=O)[C@@H](C=C(COC(=O)c4ccccc4)[C@@H](O)[C@]2(O)[C@H]1OC(=O)c1ccccc1)[C@H]1[C@@H](C[C@H]3C)C1(C)C [Ingenol 3,20-dibenzoate, ingenol 3,20-dibenzoate]	81.2	< 0.08 µM		< 0.08 µM		
